One compound from publication PMC6746701, “A phyB-PIF1-SPA1 kinase regulatory complex promotes photomorphogenesis in Arabidopsis” (Nature Communications, 2019) can be followed below.

Substitutions are numbered along the chain they refer to.

Holding throughout (format): biochemical
Experiment [1] deals with T1, full-length SPA1 (Arabidopsis thaliana, UniProt Q9SYX2, R517E).
T1 construct: full length, strep-tagged (3x Flag also cloned), Pichia pastoris GS115, tags kept
T1 sequence (Q9SYX2 1-1029 R517E): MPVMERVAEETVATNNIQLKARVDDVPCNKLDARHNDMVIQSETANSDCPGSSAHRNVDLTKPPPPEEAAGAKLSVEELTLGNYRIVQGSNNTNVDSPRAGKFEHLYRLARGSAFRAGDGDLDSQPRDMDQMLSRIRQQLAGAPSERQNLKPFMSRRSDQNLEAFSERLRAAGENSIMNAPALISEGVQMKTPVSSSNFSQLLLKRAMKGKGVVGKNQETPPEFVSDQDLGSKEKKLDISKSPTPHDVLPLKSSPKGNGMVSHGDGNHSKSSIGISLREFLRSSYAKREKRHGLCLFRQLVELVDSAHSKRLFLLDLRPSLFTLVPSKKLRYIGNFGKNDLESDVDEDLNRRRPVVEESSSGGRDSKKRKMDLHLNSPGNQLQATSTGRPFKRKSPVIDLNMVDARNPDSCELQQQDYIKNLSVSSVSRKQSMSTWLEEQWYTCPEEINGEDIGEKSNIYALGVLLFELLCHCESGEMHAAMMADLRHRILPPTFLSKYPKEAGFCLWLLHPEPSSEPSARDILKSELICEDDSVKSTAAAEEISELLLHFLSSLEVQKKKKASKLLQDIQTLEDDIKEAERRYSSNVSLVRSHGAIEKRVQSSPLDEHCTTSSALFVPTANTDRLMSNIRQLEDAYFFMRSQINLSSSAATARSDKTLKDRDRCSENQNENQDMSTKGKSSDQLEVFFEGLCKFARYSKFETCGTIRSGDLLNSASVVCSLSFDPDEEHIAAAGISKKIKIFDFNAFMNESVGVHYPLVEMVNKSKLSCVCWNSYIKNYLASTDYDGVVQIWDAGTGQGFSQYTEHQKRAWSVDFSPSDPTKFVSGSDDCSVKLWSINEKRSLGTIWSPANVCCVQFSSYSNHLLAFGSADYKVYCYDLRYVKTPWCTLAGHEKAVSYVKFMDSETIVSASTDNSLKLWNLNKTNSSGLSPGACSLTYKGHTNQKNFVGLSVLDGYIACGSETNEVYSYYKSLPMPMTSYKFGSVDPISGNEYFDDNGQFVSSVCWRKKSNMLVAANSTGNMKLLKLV
The experiment can be described thus: in vitro kinase assay, autoradiogram. The following applies: GST-PIF1 as co-substrate, 10 mM MgCl2, pH 7.5, 28 °C; labelled compound (gamma-32P).

The next experiment addresses T2, SPA1-Kin (Arabidopsis thaliana, UniProt Q9SYX2, R517E, form not given).
T2 sequence (Q9SYX2 1-545 R517E limits assumed): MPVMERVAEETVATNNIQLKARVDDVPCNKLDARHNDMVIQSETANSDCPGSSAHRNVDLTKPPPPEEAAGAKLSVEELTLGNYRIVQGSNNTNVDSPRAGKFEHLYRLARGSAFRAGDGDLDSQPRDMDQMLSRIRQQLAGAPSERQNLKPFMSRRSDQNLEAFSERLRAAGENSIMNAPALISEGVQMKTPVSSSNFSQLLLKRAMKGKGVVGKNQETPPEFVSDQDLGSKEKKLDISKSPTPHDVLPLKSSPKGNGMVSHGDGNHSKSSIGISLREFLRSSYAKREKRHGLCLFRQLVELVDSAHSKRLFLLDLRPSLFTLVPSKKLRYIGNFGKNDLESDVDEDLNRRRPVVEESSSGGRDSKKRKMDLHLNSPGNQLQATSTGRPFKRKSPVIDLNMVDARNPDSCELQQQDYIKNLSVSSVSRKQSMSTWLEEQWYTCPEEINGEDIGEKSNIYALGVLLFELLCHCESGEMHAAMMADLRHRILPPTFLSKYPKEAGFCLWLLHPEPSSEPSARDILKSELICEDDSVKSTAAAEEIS
Nature of the experiment: in vitro autophosphorylation assay, autoradiogram. The following applies: 10 mM MgCl2, pH 7.5, 28 °C; labelled compound (gamma-32P).

Experiment [2] concerns the target T3, full-length SPA1 (Arabidopsis thaliana, UniProt Q9SYX2).
T3 construct: full length, strep-tagged (3x Flag also cloned), Pichia pastoris GS115, tags kept
T3 sequence (Q9SYX2 1-1029): T1 sequence (Q9SYX2 1-1029 R517E) with E517R
Nature of the experiment: in vitro kinase assay, autoradiogram. The following applies: GST-PIF1 as co-substrate, ATP 0.004-2.5 mM, 10 mM MgCl2, pH 7.5, 28 °C; labelled compound (gamma-32P).

With `Nc1ncnc2c1ncn2[C@@H]1O[C@H](COP(=O)(O)OP(=O)(O)OP(=O)(O)O)[C@@H](O)[C@H]1O` [ATP], the “in vitro kinase assay, autoradiogram” value on full-length SPA1 [1] is “mSPA1 showed significantly reduced PIF1 phosphorylation compared to the wild type SPA1”; on full-length SPA1 [2], “SPA1 also phosphorylated PIF1 in an ATP concentration- and time-dependent manner”. For the same compound, the “in vitro autophosphorylation assay, autoradiogram” value at SPA1-Kin is listed as “significantly reduced auto-phosphorylation activity for the SPA1-Kin^R517E (mSPA1) mutant”.
